Test results from US5434295A (priority 1994, dated 1995).

How the values were obtained:
[1] = system: pyramidal cells in CA1 subfield of the hippocampus; test: Histopathological evaluation of hippocampus in gerbils after bilateral common carotid artery occlusion; type: in vivo, Mongolian gerbils; details: drug 30 min after occlusion
Source text: Inhibition of ischemic neuronal damage in gerbils: Temporary blockage of the blood supply to the gerbil brain by surgical ligation of the two major arteries (common carotids) results in transient global forebrain ischemia. Temporary global ischemia produces a delayed, selective degeneration of neurons in the hippocampus, a brain structure essential for memory formation. The ability of various compounds to prevent hippocampal cell loss and the attendant memory deficits is considered a measure of their potency as neuroprotectants in ischemic conditions.
Mongolian gerbils (male), 65-70 gr (Tumblebrook Farm) underwent the ischemic procedure while anaesthetised with equithisine.
Common carotid arteries (CCA) were isolated and 3-0 silk suture material was positioned loosely round them. The tips of each loop were tied together, and the suture material was buried beside the trachea. The ventral neck incision was then sutured. In the following day, they were lightly anaesthetised with ether, the neck skin wounds were opened and both CCA were occluded for 10 minutes using small artery clips. During the ischemia and until the animals recovered (regaining righting reflexes), they were maintained in a warm state (36.5°-37.5° C. rectal temperature). […]
Histopathological evaluation. […] Then, 5 μm sections were cut from the area of the dorsal hippocampus, stained with H&E and cresyl violet, and evaluated according to the following system. The number of viable pyramidal cells in the medial, middle and lateral CA1 subfield of the hippocampus were counted under 400X magnification, along 0.4 mm in both sides. […]
Statistics. Neuroclinical appearance was analyzed using Wilcoxon Rank Sum Test. The histopathological evaluation was analyzed using One-Way ANOVA followed by Duncan's Test.
Gerbils were scored for their clinical symptoms following the ischemic insult according to the system described by Rudolphi et al. (Table 4). Each animal was evaluated daily over 4 consecutive days (Day 1 being the day of CCA occlusion). […]

NMDA toxicity in mice = test: Prevention of NMDA neurotoxicity in mice (neurological scores); type: in vivo, mice (Balb/C); details: for maximum improvement of neurological scores: NMDA 60 mg/kg s.c., i.p. or i.v. pretreatment; for neurological scores/symptoms after NMDA toxicity: pretreated mice
Source text: Blockade of NMDA toxicity in mice: Subcutaneous injection of NMDA in mice results in a dose-dependent increase in the number, severity and duration of several neurological symptoms, culminating in death at the higher dose range. The symptoms include tail flicks, circling, tremor and convulsions. The ability of various compounds, when administered to mice prior to NMDA, to reduce the number and severity of these symptoms is a considered a measure of their potency in preventing NMDA behavioral toxicity in vivo.
Test drugs were administered intraperitoneally at the stipulated doses in a solution of MCT oil. Each point represents the mean scores of eight mice treated with the drug compared to the same number of control animals receiving the vehicle alone.
Test compounds were administered at a standard dose of 10 mg/kg either intraperitoneally (in MCT oil) or intravenously (in a submicronized emulsion).
Bicyclic compounds of the present invention were tested for their ability to block NMDA toxicity in mice. Balb/C mice received NMDA by subcutaneous injection at a dose of 60 mg/kg which was determined to be the LD20 dose of this substance. Thirty minutes prior to injection of the neurotoxin the animals received either (a) an intravenous injection of the test drug formulated in submicronized emulsion as described in Example 11); (b) an intraperitoneal injection of the test drug dissolved in MCT oil; (c) or the appropriate vehicle alone (control groups). The improvement rate afforded by the test drug was defined as the difference between scores of animals receiving the formulated drug and those receiving the vehicle alone. The doses tested for HU-254, HU-259 and HU-260 ranged from 5 to 30 mg/kg.
At least 6-8 mice were included per test group. The materials were tested in a masked study to preclude bias of the observer of clinical symptoms.
The behavioral scoring method (tabulated above) was used as the basic quantitative procedure for evaluating the level of NMDA or kainic acid neurotoxicity in mice. The neurological clinical status of each animal was calculated by totalling the scores of all signs that were evident throughout the study. Duration of symptoms was also taken into account.
If duration of a neurological system is up to 30 seconds, the score is s-1. Duration between 0.5-3.0 mins, the score is s. Duration longer than 3 mins, the score is s+1.

Structure (SMILES)	histopathological damage / survival of hippocampal cells [1]	maximum improvement of neurological scores (NMDA toxicity in mice)	neurological scores/symptoms after NMDA toxicity (NMDA toxicity in mice)
CCCCCCC(C)(C)c1cc(OC(C)=O)c([C@H]2C=C(C(=O)O)[C@H]3C[C@@H]2C3(C)C)c(OC(C)=O)c1 [(+)-4-[4-DMH-2,6 diacetoxyphenyl]-2-carboxy-6,6-dimethylbicyclo[3.1.1]hept-2-en]	significantly decreased compared to control groups	30-40%	improvement in neurological scores
CCCCCCC(C)(C)c1cc(OC(C)=O)c([C@H]2C=C(C(=O)N(CC)CC)[C@H]3C[C@@H]2C3(C)C)c(OC(C)=O)c1 [HU-270]	increased survival of hippocampal cells	30-40%	decreased neurological symptoms
CCCCCCC(C)(C)c1cc(OC(C)=O)c([C@H]2C=C(C(=O)NCCO)[C@H]3C[C@@H]2C3(C)C)c(OC(C)=O)c1 [HU-271]	increased survival of hippocampal cells	30-40%	decreased neurological symptoms
